Data as given in paper PMC12749748, “Chemically-induced degradation of the endoplasmic-reticulum stress sensor IRE1 by a VHL-recruiting chimera” (Nature Communications, 2025).

Legend:
OPM2 cells = experiment: Incucyte cell confluency, OPM2 cells; type: cell-based; conditions: OPM2 shIRE1 cells, titration
Experimental: For non-adherent AMO1, KMS27, and OPM2 cells, cells were plated at 5000 cells/well in ultra-low attachment (ULA) 96-well plates (Costar, #7007) and centrifuged at 600 × g for 5 min for spheroid formation. For adherent U2OS and Colo201 cells, 2000 cells/well were seeded in a clear flat-bottom 96-well plate (Costar, #3595). Treatments were added at the time of cell seeding, and cells were cultured in complete RPMI media to a final volume of 200 µL/well. Cultures were maintained at 37 °C throughout the duration of the experiment. Cell confluency was tracked using the Incucyte live-cell imaging system (Sartorius S3). Picture frames were captured every 4 h with a 4× objective, and cell confluency (%) from the total well area as a function of time was calculated using the Incucyte software (version 2023 A Rev2).

[1] = system: panel of 220 human kinases; experiment: SelectScreen kinase profiling, panel of 220 kinases; type: biochemical; conditions: 1 µM, 1 h, besides IRE1
Experimental: The kinome selectivity of G6374 was assessed at 1 μM for 1 h versus a panel of 220 human kinases (SelectScreen Kinase Profiling Services, Thermo Fisher Scientific). The assays were conducted using either the Z’-LYTE technology to assess inhibition of enzyme activity ([ATP] = Km) or the TR-FRET-based LanthaScreen Eu Kinase Binding assay to assess competitive displacement of an ATP site binding probe. Assay results were normalized to positive and negative controls to determine percent inhibition. Image was created by KNIME Report Designer (KNIME.com AG, Zurich, Switzerland). Kinases for which ATP binding was inhibited by more than 90% were further examined by IB analysis for depletion by G6374 in AMO1 cells (4 h incubation).

human IRE1.KR = target: T1, human IRE1.KR (Homo sapiens, UniProt O75460); experiment: Surface plasmon resonance, binary interaction with IRE1.KR; type: binding; conditions: SPR, immobilised IRE1.KR, 20 °C, 1 to 1 kinetic model
T1 construct: Recombinant human IRE1.KR (G547-L977) was purified using an established protocol; His6 (with TEV protease cleavage site) (N, cleaved yes); made in house; host or cells: Sf9
Experimental: All SPR experiments in this paper were recorded on a Biacore S200 instrument; all protein captures and data collection were at 20 °C.
For binary interactions with G6374: a Xantec SAHC 200 M (streptavidin) chip was inserted into the instrument and primed into running buffer [50 mM HEPES (pH 7.4), 150 mM NaCl, 0.001% Tween 20, 0.2% PEG3350, 0.25 mM TCEP, and 2% DMSO]. Biotinylated human IRE1.KR protein was captured on FC2 to 2-4000 RU, biotinylated VHL in complex with Elongin B (VHL/EloB) was captured on FC4 to 1-2000 RU, data were collected, and all referenced to FC1. Affinity for G6374 was measured using a titration series, injected from low to high with an 8-point, 2-fold dilution dose response with a top concentration of 0.5 μM in both single cycle (single cycle kinetics (SCK)) and multi cycle kinetics (MCK) formats. For MCK experiments, an association time of 45 s and a dissociation time of 200 s with a flow rate of 50 μL/min. For SCK experiments, an association time of 45 s and a dissociation time of 2000 s with a flow rate of 50 μL/min were used. All data were analyzed using Insight software (Cytiva) using a 1 to 1 kinetic binding model.

IRE1:VHL = IRE1:VHL (Homo sapiens, UniProt O75460+P40337); experiment: co-IP of endogenous VHL with endogenous IRE1 from AMO1 cells; type: cell-based; set-up: co-IP of endogenous VHL with endogenous IRE1 from AMO1 cells; endogenous in cells; host or cells: AMO1; conditions: titration of G6374
Experimental: Cells were lysed in buffer containing 20 mM HEPES 7.2, 150 mM NaCl, and 1% Triton X-100, supplemented with fresh protease and phosphatase inhibitors (Invitrogen, #78440), cleared by centrifugation at 12,000 × g for 10 min, and analyzed by BCA protein assay (Thermo Fisher Scientific, #23227). Equal protein amounts were loaded, separated by SDS-PAGE, electrotransferred to nitrocellulose membranes using the iBLOT2 system (Invitrogen), and blocked in 5% nonfat milk solution for 60 min. Membranes were probed with primary antibodies at 1:1000 dilution in 5% milk at 4 °C overnight. Signal was detected using appropriate horseradish peroxidase (HRP)-conjugated secondary antibodies at 1:10,000 in 5% milk at room temperature for 1–2 h. Bands were visualized by the Azure 600 western blot imaging system (Azure Biosystems). For in vitro ubiquitination assays performed with Me-Ub, bands were visualized by the Odyssey CLx Imager (LI‑COR) after incubating the blots with the IRDye 800CW (LI-COR) secondary antibodies at 1:10,000 in Intercept Blocking Buffer (LI-COR) at room temperature for 1–2 h.
IRE1.LD antibodies were conjugated to agarose beads using the AminoLink® Plus Immobilization Kit (Thermo Fisher, #44894). […]

T1 sequence (O75460 547-977): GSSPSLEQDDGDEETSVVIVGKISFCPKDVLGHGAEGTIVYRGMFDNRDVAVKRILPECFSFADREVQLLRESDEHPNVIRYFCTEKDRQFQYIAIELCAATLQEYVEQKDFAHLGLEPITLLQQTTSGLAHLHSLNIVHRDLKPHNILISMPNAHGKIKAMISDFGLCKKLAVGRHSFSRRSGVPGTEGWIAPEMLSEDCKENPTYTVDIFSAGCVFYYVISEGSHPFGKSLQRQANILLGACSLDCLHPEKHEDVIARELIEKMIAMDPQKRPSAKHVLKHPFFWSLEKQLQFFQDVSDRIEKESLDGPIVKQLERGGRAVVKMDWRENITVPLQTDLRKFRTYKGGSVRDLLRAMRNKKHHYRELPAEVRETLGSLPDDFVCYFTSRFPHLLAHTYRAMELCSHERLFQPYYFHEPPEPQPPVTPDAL
IRE1:VHL, sequence (O75460 19-977): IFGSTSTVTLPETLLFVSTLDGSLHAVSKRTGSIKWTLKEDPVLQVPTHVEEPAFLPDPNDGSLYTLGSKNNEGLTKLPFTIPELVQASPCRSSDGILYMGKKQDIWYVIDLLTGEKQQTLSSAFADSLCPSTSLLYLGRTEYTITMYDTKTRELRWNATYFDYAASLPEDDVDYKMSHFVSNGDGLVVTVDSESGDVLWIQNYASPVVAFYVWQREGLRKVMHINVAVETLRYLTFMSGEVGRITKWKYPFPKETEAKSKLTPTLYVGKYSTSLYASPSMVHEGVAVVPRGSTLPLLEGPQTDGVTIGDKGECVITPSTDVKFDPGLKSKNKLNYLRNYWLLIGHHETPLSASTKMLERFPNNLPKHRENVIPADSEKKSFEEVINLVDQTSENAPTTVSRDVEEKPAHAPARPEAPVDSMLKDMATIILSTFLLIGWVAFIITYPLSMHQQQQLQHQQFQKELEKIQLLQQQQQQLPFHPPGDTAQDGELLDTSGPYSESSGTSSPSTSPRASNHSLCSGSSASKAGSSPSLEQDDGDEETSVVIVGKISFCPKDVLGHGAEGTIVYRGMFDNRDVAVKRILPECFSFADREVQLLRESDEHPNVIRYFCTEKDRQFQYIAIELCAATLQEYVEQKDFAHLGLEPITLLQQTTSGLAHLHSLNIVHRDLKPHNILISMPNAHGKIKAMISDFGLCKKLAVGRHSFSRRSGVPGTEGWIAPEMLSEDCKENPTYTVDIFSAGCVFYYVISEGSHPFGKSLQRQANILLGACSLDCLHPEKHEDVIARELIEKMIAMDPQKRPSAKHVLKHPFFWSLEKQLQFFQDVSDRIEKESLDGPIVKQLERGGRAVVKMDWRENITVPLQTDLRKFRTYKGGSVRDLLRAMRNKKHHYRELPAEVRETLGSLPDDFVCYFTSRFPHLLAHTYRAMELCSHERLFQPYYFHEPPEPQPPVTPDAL
IRE1:VHL, sequence (P40337 whole entry): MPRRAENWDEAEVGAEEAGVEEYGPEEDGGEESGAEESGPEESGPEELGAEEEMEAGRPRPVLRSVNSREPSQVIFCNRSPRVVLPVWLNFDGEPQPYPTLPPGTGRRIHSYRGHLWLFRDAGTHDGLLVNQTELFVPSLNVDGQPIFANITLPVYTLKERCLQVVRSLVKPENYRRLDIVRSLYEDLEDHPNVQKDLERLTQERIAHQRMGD
IRE1:VHL, sequence (Q15369 whole entry partner): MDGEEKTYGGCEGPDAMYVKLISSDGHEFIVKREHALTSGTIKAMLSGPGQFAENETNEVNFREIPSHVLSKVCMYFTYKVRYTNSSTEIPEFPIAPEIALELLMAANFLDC
IRE1:VHL, sequence (Q15370 whole entry partner): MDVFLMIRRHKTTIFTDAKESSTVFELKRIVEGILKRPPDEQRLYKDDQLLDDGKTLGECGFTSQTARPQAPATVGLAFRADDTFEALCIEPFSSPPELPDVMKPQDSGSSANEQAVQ
IRE1:VHL, sequence (Q13617 whole entry partner): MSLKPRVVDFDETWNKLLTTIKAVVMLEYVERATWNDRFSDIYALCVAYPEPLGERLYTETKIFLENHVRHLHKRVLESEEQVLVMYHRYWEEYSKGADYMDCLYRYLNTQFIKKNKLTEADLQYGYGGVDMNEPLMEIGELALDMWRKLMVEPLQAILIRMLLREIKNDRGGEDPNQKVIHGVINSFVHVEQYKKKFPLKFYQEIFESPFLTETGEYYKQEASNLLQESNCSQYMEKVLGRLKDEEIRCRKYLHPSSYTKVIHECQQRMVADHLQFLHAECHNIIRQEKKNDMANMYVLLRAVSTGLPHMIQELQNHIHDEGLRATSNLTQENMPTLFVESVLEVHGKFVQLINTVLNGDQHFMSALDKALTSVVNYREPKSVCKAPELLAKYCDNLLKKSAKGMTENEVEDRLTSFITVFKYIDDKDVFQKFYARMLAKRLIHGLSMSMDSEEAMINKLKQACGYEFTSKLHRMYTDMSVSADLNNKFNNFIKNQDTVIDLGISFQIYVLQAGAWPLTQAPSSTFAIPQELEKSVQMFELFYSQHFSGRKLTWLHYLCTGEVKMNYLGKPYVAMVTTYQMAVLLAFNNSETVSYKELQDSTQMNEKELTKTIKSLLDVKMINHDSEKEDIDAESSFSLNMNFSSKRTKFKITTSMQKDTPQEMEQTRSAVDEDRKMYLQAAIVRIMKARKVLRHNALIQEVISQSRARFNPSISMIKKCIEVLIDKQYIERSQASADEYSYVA
IRE1:VHL, sequence (P62877 whole entry partner): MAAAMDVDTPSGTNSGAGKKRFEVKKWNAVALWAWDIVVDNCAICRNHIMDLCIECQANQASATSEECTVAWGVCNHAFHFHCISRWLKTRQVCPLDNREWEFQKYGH

## Cc1ncsc1-c1ccc(CNC(=O)[C@@H]2C[C@@H](O)CN2C(=O)[C@@H](NC(=O)CCCCN2CCN([C@H]3CC[C@H](Nc4ncc5ccc(=O)n(C(C)C)c5n4)CC3)CC2)C(C)(C)C)cc1 [G6374]
OPM2 cells
  growth inhibition (cell confluency): concentration-dependent growth inhibition
[1]
  number of other kinases inhibited by >90%: 9
Human IRE1.KR
  Kd: 0.56 nM
  kd: 0.0025 s⁻¹
Human IRE1.KR; read-out: ka
  kon: 4.95e+06 M⁻¹ s⁻¹
IRE1:VHL
  induced IRE1:VHL interaction (co-IP): induced a much stronger interaction between the two proteins
